Experimental data reported in US8987228B2, “Pharmaceutical composition including an A3 adenosine receptor agonist 1-deooxy-1-[N6-(3-idobenzyl)-adenin-9-yl]-N-methyl-β-D-ribofuronamide(IB-MECA/CF-101) for treatment of psoriasis” (Can-Fite Biopharma Ltd., priority 2009, dated 2015).
“Also recorded” adds a separate entry of the source.

Test system: moderate-to-severe chronic plaque psoriasis
Assay: Phase 2, multi-center, randomized, double-blind, placebo-controlled clinical study in psoriasis patients (PASI assessment)
Type: in vivo, human
Conditions: 12 weeks
Description: A Phase 2, multi-center, randomized, double-blind, placebo-controlled clinical study was conducted in adult males and females, with ages of 18 to 70 years, with a diagnosis of moderate-to-severe chronic plaque psoriasis.
Eligible patients were randomly assigned to receive either placebo or a clinical grade […][N^6-(3-iodobenzyl)-adenin-9-yl]-N-methyl-β-D-ribofuronamide, IB-MECA (code-named by the study sponsor, Can-Fite Biopharma, the Assignee of this application, as “CF101”) at doses of 1 mg, 2 mg and 4 mg, taken orally twice daily (namely, total daily doses of 2 mg, 4 mg and 8 mg, respectively). IB-MECA was formulated in a tablet formulation as detailed in Table 1 below. Patients were instructed to take the formulation on an empty stomach. The study duration was 12 weeks.
The study was carried out in cohorts:
Cohort 1: 1 mg IB-MECA or placebo.
Cohort 2: 2 mg IB-MECA or placebo.
Cohort 3: 4 mg IB-MECA or placebo.
Within each cohort, patients were randomly assigned to either IB-MECA or placebo in a 3:1 ratio.
Disease was assessed using the Psoriasis Area and Severity Index (PASI).
Sixty two (62) patients were evaluated that belonged ton the following treatment groups (administration twice a day): […]

## CNC(=O)[C@H]1O[C@@H](n2cnc3c(NCc4cccc(I)c4)ncnc32)[C@H](O)[C@@H]1O [IB-MECA, 1-deoxy-1-[N^6-(3-iodobenzyl)-adenin-9-yl]-N-methyl-β-D-ribofuronamide]
2 mg IB-MECA orally twice daily (total 4 mg/day) versus placebo, patients with moderate-to-severe chronic plaque psoriasis, FIG. 1
  change in the Psoriasis Area and Severity Index (PASI) score from baseline over the study period: continuous improvement in the patients' condition throughout the course of the study; also recorded: marked effect
2 mg twice daily (total 4 mg/day) compared with 1 mg and 4 mg twice daily (2 mg/day and 8 mg/day), oral, FIG. 2
  difference between three doses of IB-MECA in the change in the PASI score from baseline over the study period: considerably greater response over the two other tested dose groups; also recorded: significantly more effective in treatment of the psoriatic plaques than treatment of psoriasis at daily doses of 2 mg or 8 mg; also recorded: superior to a lower daily dose of 2 mg or a higher dose of 8 mg
